Results published in paper PMC11876601 (Molecular Systems Biology, 2025).
Where two headings read alike, the source gives them in different places.

Columns and labels:
Experiment in all cases: cells
Colo-357 [1] = tested on: Colo-357; parameters: ATPlite luminescence viability of PDAC cell lines, 11-dose single-agent curves, 4-parameter fit; conditions: Homo sapiens, COLO357, 72 h, read-out: EC50 [nM]
In short: (§1)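 Drug-combination screening used cells plated at 1000 to 5000 per well one day before treatment. Final DMSO was 0.2%. Each plate held untreated negative-control wells and 5 µM staurosporine positive-control wells.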

Dan-G [2] = tested on: Dan-G; parameters: ATPlite luminescence viability of PDAC cell lines, 11-dose single-agent curves, 4-parameter fit; conditions: 72 h, read-out: EC50 [nM]
In short: as §1

HPDE [3] = tested on: HPDE; parameters: ATPlite luminescence viability of PDAC cell lines, 11-dose single-agent curves, 4-parameter fit; conditions: HPDE, 72 h, read-out: EC50 [nM]
In short: as §1

AsPC-1 [4] = tested on: AsPC-1; parameters: Viability of PDAC cell lines, ATPlite luminescence, 11-dose single-agent curve fit; conditions: Homo sapiens, ASPC1, 72 h, read-out: EC50 [nM]
In short: (§2)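 screening used cells plated at 1000 to 5000 per well one day before treatment. Final DMSO was 0.2%. Each plate held untreated negative-control wells and 5 µM staurosporine positive-control wells.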

BxPC-3 [5] = tested on: BxPC-3; parameters: Viability of PDAC cell lines, ATPlite luminescence, 11-dose single-agent curve fit; conditions: Homo sapiens, BXPC-3, 72 h, read-out: EC50 [nM]
In short: as §2

Capan-1 [6] = tested on: Capan-1; parameters: Viability of PDAC cell lines, ATPlite luminescence, 11-dose single-agent curve fit; conditions: Homo sapiens, CAPAN-1, 72 h, read-out: EC50 [nM]
In short: as §2

FAMPAC [7] = tested on: FAMPAC; parameters: Viability of PDAC cell lines, ATPlite luminescence, 11-dose single-agent curve fit; conditions: 72 h, read-out: EC50 [nM]
In short: as §2

HuP-T4 = tested on: HuP-T4; parameters: Viability of PDAC cell lines, ATPlite luminescence, 11-dose single-agent curve fit; conditions: Homo sapiens, HuP-T4, 72 h, read-out: EC50 [nM]
In short: as §2

MiaPaCa-2 [8] = tested on: MiaPaCa-2; parameters: Viability of PDAC cell lines, ATPlite luminescence, 11-dose single-agent curve fit; conditions: Homo sapiens, MIA PaCa-2, 72 h, read-out: EC50 [nM]
In short: as §2

PANC-1 = tested on: PANC-1; parameters: Viability of PDAC cell lines, ATPlite luminescence, 11-dose single-agent curve fit; conditions: Homo sapiens, PANC-1, 72 h, read-out: EC50 [nM]
In short: as §2

PSN-1 [9] = tested on: PSN-1; parameters: Viability of PDAC cell lines, ATPlite luminescence, 11-dose single-agent curve fit; conditions: Homo sapiens, PSN1, 72 h, read-out: EC50 [nM]
In short: as §2

PaTu-8988-T [10] = tested on: PaTu-8988-T; parameters: Viability of PDAC cell lines, ATPlite luminescence, 11-dose single-agent curve fit; conditions: Homo sapiens, PaTu 8988t, 72 h, read-out: EC50 [nM]
In short: as §2

Suit2-07 [11] = tested on: Suit2-07; parameters: Viability of PDAC cell lines, ATPlite luminescence, 11-dose single-agent curve fit; conditions: 72 h, read-out: EC50 [nM]
In short: as §2

AsPC-1 [12] = tested on: AsPC-1; parameters: ATPlite luminescence viability of PDAC cell lines, 11-dose single-agent curves, 4-parameter fit; conditions: Homo sapiens, ASPC1, 72 h, read-out: EC50 [nM]
In short: as §1

BxPC-3 [13] = tested on: BxPC-3; parameters: ATPlite luminescence viability of PDAC cell lines, 11-dose single-agent curves, 4-parameter fit; conditions: Homo sapiens, BXPC-3, 72 h, read-out: EC50 [nM]
In short: as §1

FAMPAC [14] = tested on: FAMPAC; parameters: ATPlite luminescence viability of PDAC cell lines, 11-dose single-agent curves, 4-parameter fit; conditions: 72 h, read-out: EC50 [nM]
In short: as §1

MiaPaCa-2 [15] = tested on: MiaPaCa-2; parameters: ATPlite luminescence viability of PDAC cell lines, 11-dose single-agent curves, 4-parameter fit; conditions: Homo sapiens, MIA PaCa-2, 72 h, read-out: EC50 [nM]
In short: as §1

PSN-1 [16] = tested on: PSN-1; parameters: ATPlite luminescence viability of PDAC cell lines, 11-dose single-agent curves, 4-parameter fit; conditions: Homo sapiens, PSN1, 72 h, read-out: EC50 [nM]
In short: as §1

PaTu-8988-T [17] = tested on: PaTu-8988-T; parameters: ATPlite luminescence viability of PDAC cell lines, 11-dose single-agent curves, 4-parameter fit; conditions: Homo sapiens, PaTu 8988t, 72 h, read-out: EC50 [nM]
In short: as §1

Suit2-07 [18] = tested on: Suit2-07; parameters: ATPlite luminescence viability of PDAC cell lines, 11-dose single-agent curves, 4-parameter fit; conditions: 72 h, read-out: EC50 [nM]
In short: as §1

Colo-357 [19] = tested on: Colo-357; parameters: Viability of PDAC cell lines, ATPlite luminescence, 11-dose single-agent curve fit; conditions: Homo sapiens, COLO357, 72 h, read-out: EC50 [nM]
In short: as §2

Capan-1 [20] = tested on: Capan-1; parameters: ATPlite luminescence viability of PDAC cell lines, 11-dose single-agent curves, 4-parameter fit; conditions: Homo sapiens, CAPAN-1, 72 h, read-out: EC50 [nM]
In short: as §1

Dan-G [21] = tested on: Dan-G; parameters: Viability of PDAC cell lines, ATPlite luminescence, 11-dose single-agent curve fit; conditions: 72 h, read-out: EC50 [nM]
In short: as §2

HPDE [22] = tested on: HPDE; parameters: Viability of PDAC cell lines, ATPlite luminescence, 11-dose single-agent curve fit; conditions: HPDE, 72 h, read-out: EC50 [nM]
In short: as §2

Row | SMILES | EC50 (Colo-357 [1]) | EC50 (Dan-G [2]) | EC50 (HPDE [3]) | EC50 (AsPC-1 [4]) | EC50 (BxPC-3 [5]) | EC50 (Capan-1 [6]) | EC50 (FAMPAC [7]) | EC50 (HuP-T4) | EC50 (MiaPaCa-2 [8]) | EC50 (PANC-1) | EC50 (PSN-1 [9]) | EC50 (PaTu-8988-T [10]) | EC50 (Suit2-07 [11]) | EC50 (AsPC-1 [12]) | EC50 (BxPC-3 [13]) | EC50 (FAMPAC [14]) | EC50 (MiaPaCa-2 [15]) | EC50 (PSN-1 [16]) | EC50 (PaTu-8988-T [17]) | EC50 (Suit2-07 [18]) | also measured
1 | CS(=O)(=O)CCNCc1ccc(-c2ccc3ncnc(Nc4ccc(OCc5cccc(F)c5)c(Cl)c4)c3c2)o1 [Lapatinib] | 815 nM | 3780 nM | > 10000 nM | > 10000 nM | 8320 nM | > 10000 nM | > 10000 nM | > 10000 nM | > 10000 nM | > 10000 nM | > 10000 nM | > 10000 nM | 7910 nM |  |  |  |  |  |  |  | 
2 | C#Cc1cccc(Nc2ncnc3cc4c(cc23)OCCOCCOCCO4)c1 [Icotinib] | 2260 nM | 1530 nM | 1000 nM | 416 nM | 5260 nM | 1900 nM | 6990 nM | 0.21 nM | 1760 nM | 716 nM | 42 nM | 91.9 nM | 101 nM |  |  |  |  |  |  |  | 
3 | O=C1CCc2c(Oc3ccc4c(c3)[C@@H]3[C@H](O4)[C@H]3c3nc4cc(C(F)(F)F)ccc4[nH]3)ccnc2N1 [Lifirafenib] |  | 2000 nM | 1980 nM |  |  | 9370 nM |  | 4500 nM |  | > 10000 nM |  |  |  | 966 nM | 3060 nM | 2510 nM | 2650 nM | 696 nM | 2540 nM | > 10000 nM | EC50 (Colo-357 [19]): 3500 nM
4 | CCn1c(=O)c(-c2cc(NC(=O)Nc3ccccc3)c(F)cc2Br)cc2cnc(NC)cc21 [Ripretinib] |  | 501 nM | 901 nM |  |  | 758 nM |  | 592 nM |  | > 10000 nM |  |  |  | 1270 nM | 467 nM | 912 nM | 589 nM | 582 nM | 717 nM | 431 nM | EC50 (Colo-357 [19]): 611 nM
5 | O=C(Nc1ccc(OC(F)(F)Cl)cc1)c1cnc(N2CC[C@@H](O)C2)c(-c2cc[nH]n2)c1 [Asciminib] | > 10000 nM |  |  | 1470 nM | 794 nM |  | > 10000 nM | 3860 nM | 2770 nM | 4520 nM | 1730 nM | 1350 nM | 3.54 nM |  |  |  |  |  |  |  | EC50 (Capan-1 [20]): 3820 nM; EC50 (Dan-G [21]): 7610 nM; EC50 (HPDE [22]): 4830 nM
6 | C[C@]1(O)C[C@@H](c2nc(-c3ccc4ccc(-c5ccccc5)nc4c3)c3c(N)nccn32)C1 [Linsitinib] |  |  | 7060 nM |  | > 10000 nM | 1750 nM | 4850 nM | 21.6 nM |  | > 10000 nM | 7340 nM | 6100 nM |  | 1540 nM |  |  | 416 nM |  |  | 239 nM | EC50 (Colo-357 [19]): 4180 nM; EC50 (Dan-G [21]): 3840 nM
7 | COc1cc2/c(=N/c3ccc(Br)cc3F)nc[nH]c2cc1OCC1CCN(C)CC1 [Vandetanib] | 6050 nM | > 10000 nM | 1520 nM |  |  | > 10000 nM |  | 23.9 nM |  | 3860 nM | > 10000 nM |  |  | > 10000 nM | 3600 nM | > 10000 nM | > 10000 nM |  | > 10000 nM | > 10000 nM | 
8 | C[C@@H]1COC(Nc2ccc3ncnc(Nc4ccc(OCc5nccs5)c(Cl)c4)c3c2)=N1 [Varlitinib] | 676 nM | 630 nM | 1930 nM | 390 nM |  | 724 nM |  | 40.5 nM | 4440 nM | > 10000 nM | 2940 nM | 861 nM | 2070 nM |  | 1760 nM | > 10000 nM |  |  |  |  | 
9 | CN(C)CCCOc1ccc(-c2ccc3ncc4c(c3c2)n(C2CCOCC2)c(=O)n4C)cn1 [AZD-0156] | 6410 nM |  | 10400 nM |  |  | > 10000 nM |  |  |  | > 10000 nM |  |  |  | > 10000 nM | 5990 nM | 1890 nM | 1010 nM | 3260 nM | 606 nM | 1960 nM | EC50 (Dan-G [21]): 4160 nM
10 | NC(=O)c1cccc2cn(-c3ccc([C@@H]4CCCNC4)cc3)nc12 [Niraparib] | 1160 nM | 1710 nM |  | > 10000 nM | 1010 nM |  |  | 10.5 nM |  | 3580 nM |  | 4150 nM |  |  |  | 3370 nM | 2020 nM | 1740 nM |  | 1010 nM | EC50 (Capan-1 [20]): 3180 nM; EC50 (HPDE [22]): 4720 nM
11 | COc1cc(Nc2ncc3c(n2)-c2ccc(Cl)cc2C(c2c(F)cccc2OC)=NC3)ccc1C(=O)O [Alisertib] | 291 nM | 914 nM |  | 405 nM |  |  |  | 64.4 nM |  | 95.6 nM |  | 274 nM | 272 nM |  | 848 nM | 68.6 nM | 87 nM | 846 nM |  |  | EC50 (Capan-1 [20]): 427 nM; EC50 (HPDE [22]): 2700 nM
12 | CCN(CC)CCNC(=O)c1c(C)[nH]c(/C=C2\C(=O)Nc3ccc(F)cc32)c1C [Sunitinib] |  | 4120 nM | 5050 nM |  |  | > 10000 nM |  | 114 nM |  | > 10000 nM |  |  |  | > 10000 nM | 2840 nM | 5670 nM | 2340 nM | 5160 nM | 2190 nM | 3180 nM | EC50 (Colo-357 [19]): 10100 nM
13 | C=CC(=O)Nc1cccc(Oc2nc(Nc3ccc(N4CCN(C)CC4)cc3)nc3ccsc23)c1 [Olmutinib] |  | > 10000 nM | 3900 nM |  |  | > 10000 nM |  | 2230 nM |  | > 10000 nM |  |  |  | 6710 nM | 5220 nM | > 10000 nM | 5290 nM | 7020 nM | > 10000 nM | 7100 nM | EC50 (Colo-357 [19]): 8230 nM
14 | COc1cc2nccc(Oc3ccc(NC(=O)Nc4cc(C)on4)c(Cl)c3)c2cc1OC [Tivozanib] | 6590 nM | > 10000 nM |  | 6600 nM |  |  |  | 4120 nM |  | > 10000 nM |  |  | > 10000 nM |  | > 10000 nM | > 10000 nM | > 10000 nM | 5040 nM | > 10000 nM |  | EC50 (Capan-1 [20]): 9830 nM; EC50 (HPDE [22]): > 10000 nM
15 | COc1cc2ncnc(Nc3cccc(Cl)c3F)c2cc1OC(=O)N1CCN(C)C[C@H]1C [AZD3759] | 464 nM | 445 nM | 483 nM | 515 nM | 847 nM | 1200 nM | 2880 nM | 2590 nM | 2570 nM | 8860 nM | 2560 nM | 1690 nM | 1330 nM |  |  |  |  |  |  |  | 
